# Experimental data taken from paper PMC4102551, “Screening and Characterisation of Antimicrobial Properties of Semisynthetic Betulin Derivatives” (PLoS ONE, 2014).
# Values joined by “and” are separate entries in the source; they are usually repeats but may differ in a detail not shown here. Equal entries are not always repeated. Where two headings read alike, the source gives them in different places.
# Experiments:
# E. aerogenes ATCC 13048 = assay: Broth microdilution assay, E. aerogenes; format: cell-based, Enterobacter aerogenes; details: Klebsiella aerogenes, ATCC13048, 24 h, 50 µM, 24 h, inhibition of growth, mean ± SD; read-out: Inhibitory effect (%) E. aerogenes ATCC 13048
# Outline: (§1)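 Broth microdilution per CLSI/EUCAST in Mueller Hinton II broth, 5×10^5 cfu/mL, 24 h at 37°C with agitation; growth by absorbance at 620 nm versus controls. Compounds first screened at 50 µM.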
# E. coli ATCC 25922 = assay: Broth microdilution assay, E. coli; format: cell-based, Escherichia coli; details: Escherichia coli, ATCC25922, 24 h; read-out: Inhibitory effect (%) E. coli ATCC 25922
# Outline: as §1
# E. faecalis ATCC 29212 = assay: Broth microdilution assay, E. faecalis; format: cell-based, Enterococcus faecalis; details: 50 µM, 24 h, inhibition of growth, mean ± SD; for inhibition at 50 µM: Enterococcus faecalis, ATCC29212, 24 h, read-out: Inhibitory effect (%) E. faecalis ATCC 29212
# Outline: as §1
# P. aeruginosa ATCC 27853 = assay: Broth microdilution assay, P. aeruginosa; format: cell-based, Pseudomonas aeruginosa; details: Pseudomonas aeruginosa, ATCC27853, 24 h; read-out: Inhibitory effect (%) P. aeruginosa ATCC 27853
# Outline: as §1
# S. aureus ATCC 25923 = assay: Broth microdilution assay, S. aureus; format: cell-based, Staphylococcus aureus; details: 50 µM, 24 h, inhibition of growth, mean ± SD; for inhibition at 50 µM: Staphylococcus aureus, ATCC25923, 24 h, read-out: Inhibitory effect (%) S. aureus ATCC 25923
# Outline: as §1
# C. albicans ATCC 90028 = assay: Broth microdilution assay, C. albicans; format: cell-based, Candida albicans; details: for inhibition at 50 µM: Candida albicans, ATCC90028, 48 h, read-out: Inhibitory effect (%) C. albicans ATCC 90028
# Outline: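 Candida albicans ATCC 90028 was grown on Sabouraud Dextrose Agar at 27°C for 16–18 h, then suspended in sterile 0.9% saline. Broth microdilution in clear 96-well plates mixed equal volumes of yeast suspension and diluted sample. Plates were incubated with agitation at 35°C for 48 h. Absorbance at 620 nm was read at 0, 24 and 48 h, and growth inhibition was expressed as a percentage relative to controls.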
# in vitro = format: cell-based, human; details: human
# Outline: (§2)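 Cytotoxicity read-out: intracellular ATP (CellTiter-Glo luminescence) in Huh-7 hepatoma cells seeded at 20000 cells/well, cultured overnight, then exposed to compounds for 24 h at 37°C in 5% FBS medium. Polymyxin B sulphate (15000 IU/mL) served as positive control.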
# Huh-7 cells = assay: in vitro; format: cell-based, human; details: 50 µM
# Outline: as §2
# [1] = test system: S. aureus infected HL cell line; assay: Host-pathogen co-culture assay; format: cell-based, Staphylococcus aureus; details: at the highest concentration (range 0.024–100 µM), 3 days
# Method: Briefly, HL cells used as the host cell were seeded at 40000 cells/well on black-walled microplates (Perkin Elmer) and incubated at 37°C, 5% CO2 and 95% humidity for 24 h. Cell monolayers were infected with 2000 cfus of S. aureus in RPMI 1640 media without antibiotics. Compounds were added to the media at different concentrations selected on the basis of the MIC determinations. […] Co-cultures were incubated for 3 days at 37°C, 5% CO2 and 95% humidity. Following the incubation period the cells were washed with 200 µL 6.7 mM PBS, pH 7.4, and finally, 200 µL 6.7 mM PBS, pH 7.4 containing 10 µg/mL fluorescein diacetate (FDA) was added to the cells to evaluate the survival of the host cells. After 45 min incubation at room temperature (RT), fluorescence was measured at 485 nm excitation and 538 nm emission with a Victor plate reader.
# For studying simultaneously the efficacy and tolerability of antibacterial compounds, an assay based on co-culturing of a secondary human cell line (HL, derived originally from human lung) and a pathogen was used. […] In the assay, host cells are incubated in the presence of the test sample and are infected with bacteria. After 3 days of incubation, the host cell survival is determined using fluorescein diacetate to measure the viability of the host cells. […]
# [2] = Storage stability of samples; format: physicochemical; details: ambient temperature, air atmosphere, several years
# Description: Betulin 1 is a stable compound, as we have not noticed any degradation of samples even if stored at ambient temperature under air atmosphere for several years. […] Thus, instability issues cannot be seen as a major concern regarding the betulin derivatives of this study.
# Streptococcus pyogenes = test system: Streptococcus pyogenes; parameters: method as in PMID 29255382; details: ref 11; cited from earlier work
# S. aureus = test system: S. aureus; parameters: method as in earlier work; details: ref 32; cited from earlier work
# E. coli = test system: E. coli; parameters: method as in earlier work; details: ref 32; cited from earlier work
# P. aeruginosa = test system: P. aeruginosa; parameters: method as in earlier work; details: ref 32; cited from earlier work
# C. albicans = details: cited from earlier work
SMILES,inhibition at 50 µM (E. aerogenes ATCC 13048),inhibition at 50 µM (E. coli ATCC 25922),Inhibitory effect (%) E. faecalis ATCC 29212 (E. faecalis ATCC 29212),inhibition at 50 µM (E. faecalis ATCC 29212),inhibition at 50 µM (P. aeruginosa ATCC 27853),inhibition at 50 µM (S. aureus ATCC 25923),inhibition at 50 µM (C. albicans ATCC 90028),other results
"C=C(C)[C@@H]1CC[C@]2(C(=O)O)CC[C@]3(C)C(CCC4[C@@]5(C)CCC(=O)C(C)(C)C5CC[C@]43C)C12 (stereo partly shown) [Compound 23, betulonic acid]",21.8 ± 4.1%,9.1 ± 8.9%,74% and 74.3±0.8%,> 70%,9.5 ± 2.5%,51%,25.2 ± 11%,"Inhibitory effect (%) S. aureus ATCC 25923 (S. aureus ATCC 25923): 51.1±7.3%; cytotoxicity at 24 h, 50 µM (in vitro; Cytotoxicity (%) Huh-7 cells): 18%; Cytotoxicity (%) Huh-7 cells (Huh-7 cells; human, 24 h): 17.8±12.6%; Activity in host-pathogen co-culture assay [1]: 27%"
"C=C(C)[C@@H]1CC[C@]2(CO)CC[C@]3(C)[C@H](CC[C@@H]4[C@@]5(C)CC[C@H](O)C(C)(C)[C@@H]5CC[C@]43C)[C@@H]12 [Compound 1, lup-20(29)-ene-3β, 28-diol]",5.7 ± 2.1%,1.3 ± 5.1%,19.7±6.2%,20%,-1.2 ± 2.5%,-6.7 ± 6.4%,-27.5 ± 15%,"Inhibitory effect (%) C. albicans ATCC 90028 (C. albicans ATCC 90028; 50 µM, 48 h at 35°C, inhibition of growth, mean ± SD): inactive; cytotoxicity at 24 h, 50 µM (in vitro; 50 µM, 24 h exposure, ATP content, 5% FBS, read-out: Cytotoxicity (%) Huh-7 cells): 14%; Cytotoxicity (%) Huh-7 cells (Huh-7 cells; 24 h exposure, ATP content, 5% FBS): 13.7±2.7%; Stability on storage [2]: stable; MIC against S. pyogenes (Streptococcus pyogenes): 85 µg/mL; MIC against S. aureus (S. aureus): 250 µg/mL; MIC against E. coli (E. coli): 250 µg/mL; MIC against P. aeruginosa (P. aeruginosa): 250 µg/mL; MIC against C. albicans (C. albicans; ref 12): 250 µg/mL; MIC against C. albicans (C. albicans; ref 41): 180 µg/mL"
